Data as given in ChEMBL document CHEMBL1140760, “Molecular docking identifies the binding of 3-chloropyridine moieties specifically to the S1 pocket of SARS-CoV Mpro” (Bioorg Med Chem, 2008).

Test: Inhibition of SARS-CoV Mpro
Parameters: species or system Severe acute respiratory syndrome-related coronavirus
With O=C(Oc1cncc(Cl)c1)c1ccc(-c2ccc(Cl)cc2)o1 the IC50 was 0.063 µM. For O=C(Oc1cncc(Cl)c1)c1ccccc1[N+](=O)[O-], the IC50 was 0.333 µM. With O=C(Oc1cncc(Cl)c1)c1cccc([N+](=O)[O-])c1 the IC50 was 0.684 µM. O=C(Oc1cncc(Cl)c1)c1ccc(-c2ccc(Cl)cc2[N+](=O)[O-])o1 gave an IC50 of 0.122 µM. O=C(Oc1cncc(Cl)c1)c1ccc(-c2cccc([N+](=O)[O-])c2)o1 showed an IC50 of 0.5 µM. For O=C(Oc1cncc(Cl)c1)c1cc2ccccc2oc1=O, the IC50 was 0.108 µM. Molecule O=C(Oc1cncc(Cl)c1)c1ccc(-c2ccc([N+](=O)[O-])cc2)o1 has an IC50 of 0.06 µM. With O=C(Oc1cncc(Cl)c1)c1ccc(-c2ccccc2[N+](=O)[O-])o1 the IC50 was 0.208 µM. Work on O=C(Oc1cncc(Cl)c1)c1cccc2ccccc12 yielded an IC50 of 0.124 µM.
